{
  "source": "patent US11337971B2",
  "about": "“Dopamine D3 receptor selective antagonists/partial agonists and uses thereof” (THE UNITED STATES OF AMERICA, AS REPRESENTED BY THE …, priority 2018, dated 2022)",
  "key": {"5-HT2C": {"target": "5-HT2C (Homo sapiens (Human), UniProt P28335)", "sequence (P28335 33-458, species assumed)": "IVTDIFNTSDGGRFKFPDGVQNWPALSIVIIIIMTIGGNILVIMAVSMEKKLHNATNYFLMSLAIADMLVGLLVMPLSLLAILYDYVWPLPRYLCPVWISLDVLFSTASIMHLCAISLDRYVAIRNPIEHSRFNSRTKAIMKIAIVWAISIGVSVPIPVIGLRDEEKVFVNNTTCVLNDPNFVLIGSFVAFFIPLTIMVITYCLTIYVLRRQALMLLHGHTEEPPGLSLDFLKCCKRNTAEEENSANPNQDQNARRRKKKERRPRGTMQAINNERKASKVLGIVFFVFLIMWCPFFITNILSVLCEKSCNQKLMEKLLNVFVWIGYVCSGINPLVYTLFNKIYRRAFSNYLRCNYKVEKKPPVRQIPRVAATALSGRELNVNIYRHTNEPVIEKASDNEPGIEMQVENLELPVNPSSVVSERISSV", "experiment": "5-HT2C [125I]DOI binding", "details": "Table 3a; read-out: 5-HT2C [125I]DOI Ki ± SEM"}, "rhesus monkeys": {"system": "rhesus monkeys", "experiment": "Thermal tail withdrawal model of oxycodone antinociception in rhesus monkeys", "format": "in vivo, rhesus monkey", "details": "10 mg/kg, i.m."}},
  "note": "“Also recorded” adds a separate entry of the source.",
  "data": [
    {"smiles": "CCc1cc(Cl)c(OC)c(N2CCN(CC(O)CCNC(=O)c3cc4ccccc4[nH]3)CC2)c1", "note": "(racemic) [Compound 29, N-(4-(4-(3-chloro-5-ethyl-2-methoxyphenyl)piperazin-1-yl)-3-hydroxybutyl)-1H-indole-2-carboxamide]", "values": [
      {"measurement": "Ki", "setting": "5-HT2C", "value": "2190 ± 460", "unit": "nM"},
      {"measurement": "antinociception at submaximal dose of 0.1 mg/kg oxycodone", "setting": "rhesus monkeys", "value": "potentiated antinociception; also recorded: potentiates the analgesic effects"},
      {"measurement": "oxycodone antinociception at the highest and lowest doses of oxycodone", "setting": "rhesus monkeys", "value": "no effect on oxycodone antinociception"}
    ]}
  ]
}
